In patent US9550742B2, “11-OXO-10,11-dihydrodibenzo[B,F][1,4]thiazepine S-oxide derivatives and their use as dopamine D2 receptor antagonists” (The United States of America, as Represented by the …, priority 2013, dated 2017):

Experiments:
[1] = biological target: PBR (Homo sapiens, UniProt P30536); test: Affinity profile panel: PBR; conditions: inhibition of binding
[2] = biological target: Alpha2C (Homo sapiens, UniProt P18825); test: Affinity profile panel: Alpha2C; conditions: inhibition of binding
Sequence of Alpha2C (P18825 whole entry): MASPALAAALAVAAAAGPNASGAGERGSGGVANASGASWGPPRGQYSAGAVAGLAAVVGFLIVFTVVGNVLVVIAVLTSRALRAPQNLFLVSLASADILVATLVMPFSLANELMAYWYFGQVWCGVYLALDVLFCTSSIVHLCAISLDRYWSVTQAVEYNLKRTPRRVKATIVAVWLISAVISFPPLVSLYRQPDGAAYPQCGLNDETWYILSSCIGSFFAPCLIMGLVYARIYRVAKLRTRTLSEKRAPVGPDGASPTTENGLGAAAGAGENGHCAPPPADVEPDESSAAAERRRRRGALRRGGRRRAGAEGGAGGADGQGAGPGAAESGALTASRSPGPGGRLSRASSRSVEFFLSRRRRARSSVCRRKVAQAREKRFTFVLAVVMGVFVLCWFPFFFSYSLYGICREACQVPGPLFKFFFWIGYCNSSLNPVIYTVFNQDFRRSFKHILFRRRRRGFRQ

[3] = biological target: 5-HT5A (Homo sapiens, UniProt P47898); test: Affinity profile panel: 5-HT5A; conditions: inhibition of binding
Sequence of 5-HT5A (P47898 whole entry, species assumed): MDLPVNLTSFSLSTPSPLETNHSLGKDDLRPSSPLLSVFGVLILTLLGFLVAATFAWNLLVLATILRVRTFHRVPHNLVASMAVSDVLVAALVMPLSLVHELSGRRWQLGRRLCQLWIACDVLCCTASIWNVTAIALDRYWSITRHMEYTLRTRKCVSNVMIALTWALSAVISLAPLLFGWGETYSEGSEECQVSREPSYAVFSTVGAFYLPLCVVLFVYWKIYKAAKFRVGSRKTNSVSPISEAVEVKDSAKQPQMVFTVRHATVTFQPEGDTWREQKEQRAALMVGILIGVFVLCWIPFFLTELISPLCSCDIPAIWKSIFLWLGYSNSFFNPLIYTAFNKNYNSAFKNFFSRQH

[4] = biological target: DOR (Homo sapiens, UniProt P41143); test: Affinity profile panel: DOR; conditions: inhibition of binding
[5] = biological target: 5-HT1B (Homo sapiens, UniProt P28222); test: Affinity profile panel: 5-HT1B; conditions: inhibition of binding
[6] = biological target: 5-HT1A (Homo sapiens, UniProt P08908); test: Affinity profile, panel of 46 GPCRs and related proteins: 5-HT1A; conditions: inhibition of binding
[7] = biological target: Alpha1D (Homo sapiens, UniProt P25100); test: Affinity profile panel: Alpha1D; conditions: inhibition of binding
Sequence of Alpha1D (P25100 whole entry): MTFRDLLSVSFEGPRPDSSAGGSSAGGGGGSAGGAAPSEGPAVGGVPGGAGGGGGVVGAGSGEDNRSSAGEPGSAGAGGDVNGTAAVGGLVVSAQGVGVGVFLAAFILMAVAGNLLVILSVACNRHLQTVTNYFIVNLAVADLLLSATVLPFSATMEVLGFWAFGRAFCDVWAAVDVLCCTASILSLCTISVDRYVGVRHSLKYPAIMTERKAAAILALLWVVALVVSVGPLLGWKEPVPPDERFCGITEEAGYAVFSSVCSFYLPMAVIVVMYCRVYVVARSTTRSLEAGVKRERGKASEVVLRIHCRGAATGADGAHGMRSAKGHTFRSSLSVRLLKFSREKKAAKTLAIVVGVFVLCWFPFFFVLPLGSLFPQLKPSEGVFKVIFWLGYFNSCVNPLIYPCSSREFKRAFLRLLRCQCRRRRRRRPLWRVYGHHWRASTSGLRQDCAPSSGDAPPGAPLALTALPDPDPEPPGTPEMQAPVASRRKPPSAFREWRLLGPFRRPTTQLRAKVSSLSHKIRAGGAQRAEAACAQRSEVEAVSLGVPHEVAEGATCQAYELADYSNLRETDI

[8] = biological target: T1, D2 receptor (Rattus norvegicus, UniProt P61169); test: Sumanirole-induced hypothermia; format: in vivo; conditions: rats, subcutaneously
T1 construct: from tissue; host or cells: live rats (whole animal)
T1 sequence (P61169 whole entry): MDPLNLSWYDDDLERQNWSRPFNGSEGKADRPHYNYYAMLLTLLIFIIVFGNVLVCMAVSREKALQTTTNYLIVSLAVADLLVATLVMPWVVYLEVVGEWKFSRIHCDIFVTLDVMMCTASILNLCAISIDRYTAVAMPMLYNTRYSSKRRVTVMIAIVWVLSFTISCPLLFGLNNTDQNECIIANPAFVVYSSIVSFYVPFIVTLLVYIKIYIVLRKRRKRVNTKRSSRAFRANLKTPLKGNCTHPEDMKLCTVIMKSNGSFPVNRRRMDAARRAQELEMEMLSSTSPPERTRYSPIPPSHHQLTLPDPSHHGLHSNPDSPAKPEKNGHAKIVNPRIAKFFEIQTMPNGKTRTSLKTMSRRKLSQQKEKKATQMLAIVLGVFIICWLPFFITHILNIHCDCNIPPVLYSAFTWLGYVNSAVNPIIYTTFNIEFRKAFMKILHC
Description: These experiments test the ability of a compound of Formula I, ML321, to affect physiological or behavioral responses in rats that are mediated by D2 or D3 receptors. Sumanirole, an agonist of the D2 receptor, produces hypothermia in rats when administered subcutaneously. This response is known to be mediated by the D2 receptor and not the D3 receptor (Collins et al., Psychopharmacology (Berl). 2007, 193(2):159-70).
The sumanirole-induced hypothermia and pramipexole-induced yawning experiments show ML321 can act selectively to block the D2 receptor without blocking the D3 receptor when administered to living animals. Thus, the D2 selectivity identified using cellular assays can also be seen in living animals.

[9] = biological target: D3 (Homo sapiens, UniProt P35462); test: Affinity profile panel: D3; conditions: inhibition of binding
[10] = biological target: 5-HT2C (Homo sapiens, UniProt P28335); test: Affinity profile panel: 5-HT2C; conditions: inhibition of binding
Sequence of 5-HT2C (P28335 33-458, species assumed): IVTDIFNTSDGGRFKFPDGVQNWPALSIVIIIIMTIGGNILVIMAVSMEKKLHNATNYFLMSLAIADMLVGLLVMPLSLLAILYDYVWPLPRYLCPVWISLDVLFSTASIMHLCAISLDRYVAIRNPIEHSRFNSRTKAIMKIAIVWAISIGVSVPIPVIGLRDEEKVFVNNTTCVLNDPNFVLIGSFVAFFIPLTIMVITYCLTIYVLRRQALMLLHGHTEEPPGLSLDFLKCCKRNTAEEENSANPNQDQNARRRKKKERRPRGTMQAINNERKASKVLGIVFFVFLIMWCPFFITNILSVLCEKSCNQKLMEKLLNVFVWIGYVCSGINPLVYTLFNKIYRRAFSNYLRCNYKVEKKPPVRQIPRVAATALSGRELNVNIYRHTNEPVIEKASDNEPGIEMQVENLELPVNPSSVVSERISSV
Description: (§1) Antipsychotic drugs (depending on the specific drug) typically interact with a range of serotonergic, adrenergic, histaminergic, and muscarinic receptors.

[11] = biological target: SERT (Homo sapiens, UniProt P31645); test: Affinity profile panel: SERT; conditions: inhibition of binding
Sequence of SERT (P31645 whole entry, species assumed): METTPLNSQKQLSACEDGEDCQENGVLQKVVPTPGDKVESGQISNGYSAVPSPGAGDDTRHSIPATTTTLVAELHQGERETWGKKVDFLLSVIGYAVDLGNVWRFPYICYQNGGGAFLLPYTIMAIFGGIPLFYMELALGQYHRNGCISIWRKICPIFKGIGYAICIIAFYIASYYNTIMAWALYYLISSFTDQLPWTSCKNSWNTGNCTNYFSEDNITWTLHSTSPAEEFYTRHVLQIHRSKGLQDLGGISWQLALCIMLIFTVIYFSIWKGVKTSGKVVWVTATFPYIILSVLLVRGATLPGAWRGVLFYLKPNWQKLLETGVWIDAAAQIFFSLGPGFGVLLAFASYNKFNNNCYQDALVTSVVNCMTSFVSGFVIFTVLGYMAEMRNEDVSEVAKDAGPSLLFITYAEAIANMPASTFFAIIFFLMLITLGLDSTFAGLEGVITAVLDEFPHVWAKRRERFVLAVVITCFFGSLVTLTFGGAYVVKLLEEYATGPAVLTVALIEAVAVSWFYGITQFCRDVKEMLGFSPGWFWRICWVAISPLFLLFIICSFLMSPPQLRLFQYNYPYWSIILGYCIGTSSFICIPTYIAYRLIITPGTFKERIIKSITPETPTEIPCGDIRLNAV
Description: as §1

[12] = biological target: Beta3 (Homo sapiens, UniProt P13945); test: Affinity profile panel: Beta3; conditions: inhibition of binding
Sequence of Beta3 (P13945 whole entry): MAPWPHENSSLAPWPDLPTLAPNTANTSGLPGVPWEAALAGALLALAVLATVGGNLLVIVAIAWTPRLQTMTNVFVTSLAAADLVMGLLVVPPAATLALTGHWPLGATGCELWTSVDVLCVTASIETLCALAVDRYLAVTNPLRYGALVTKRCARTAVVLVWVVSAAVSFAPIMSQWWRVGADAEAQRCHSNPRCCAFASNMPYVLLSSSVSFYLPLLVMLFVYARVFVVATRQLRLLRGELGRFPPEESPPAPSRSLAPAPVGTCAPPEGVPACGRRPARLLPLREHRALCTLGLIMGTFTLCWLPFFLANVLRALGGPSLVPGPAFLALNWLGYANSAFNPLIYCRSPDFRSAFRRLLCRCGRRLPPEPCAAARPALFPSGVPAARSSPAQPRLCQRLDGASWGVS

[13] = test system: D2 receptor; test: PET study, displacement of the D2 receptor label [^11C]SV-130; format: in vivo, monkeys; conditions: i.v.
Procedure: Positron emission tomography (PET) was performed using live monkeys. A radioactive PET probe ([^11C]SV-130) for the D2 receptor was injected intravenously. PET images of coronal sections of the brain were obtained at the level of the caudate putamen. […] Monkeys were treated (i.v.) with either 1 mg/kg or 5 mg/kg ML321, a compound of Formula I (compound 55, Example 61).
The time course of PET ([^11C]SV-130) labelling of the caudate, putamen, and cerebellumum in the absence or presence of either 1 mg/kg or 5 mg/kg ML321 was plotted. […] When ML321 was injected i.v. the [^11C]SV-130 signal decreased gradually from about 20 minutes through the 100 minute observation period. The [^11C]SV-130 signal decrease was particularly dose dependent in the putamen graph.
The significance of the PET [^11C]SV-130 labelling data are two-fold. […] Second, the experiments provide direct evidence that ML321 can occupy D2 receptors in the CNS in living animals and completely block D2 receptors at a reasonable pharmacological dose.

[14] = biological target: D4 (Homo sapiens, UniProt P21917); test: D4 binding assay (FIG. 2B)
Sequence of D4 (P21917 whole entry): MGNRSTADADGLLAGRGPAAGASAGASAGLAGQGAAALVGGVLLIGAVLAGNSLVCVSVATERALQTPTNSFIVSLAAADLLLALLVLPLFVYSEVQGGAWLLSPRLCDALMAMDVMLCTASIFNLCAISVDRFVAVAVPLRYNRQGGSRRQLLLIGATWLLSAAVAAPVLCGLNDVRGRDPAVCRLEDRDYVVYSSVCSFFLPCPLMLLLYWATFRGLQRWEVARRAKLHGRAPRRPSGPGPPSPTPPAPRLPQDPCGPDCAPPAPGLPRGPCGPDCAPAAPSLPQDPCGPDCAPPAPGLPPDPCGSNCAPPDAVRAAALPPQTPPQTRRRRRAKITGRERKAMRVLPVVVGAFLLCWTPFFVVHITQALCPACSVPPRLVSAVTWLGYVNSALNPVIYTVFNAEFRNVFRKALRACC

[15] = biological target: Alpha2B (Homo sapiens, UniProt P18089); test: Affinity profile panel: Alpha2B; conditions: inhibition of binding
[16] = test system: GABAA; test: Affinity profile panel: GABAA; conditions: inhibition of binding
[17] = biological target: M4 (Homo sapiens, UniProt P08173); test: Affinity profile panel: M4; conditions: inhibition of binding
Sequence of M4 (P08173 whole entry): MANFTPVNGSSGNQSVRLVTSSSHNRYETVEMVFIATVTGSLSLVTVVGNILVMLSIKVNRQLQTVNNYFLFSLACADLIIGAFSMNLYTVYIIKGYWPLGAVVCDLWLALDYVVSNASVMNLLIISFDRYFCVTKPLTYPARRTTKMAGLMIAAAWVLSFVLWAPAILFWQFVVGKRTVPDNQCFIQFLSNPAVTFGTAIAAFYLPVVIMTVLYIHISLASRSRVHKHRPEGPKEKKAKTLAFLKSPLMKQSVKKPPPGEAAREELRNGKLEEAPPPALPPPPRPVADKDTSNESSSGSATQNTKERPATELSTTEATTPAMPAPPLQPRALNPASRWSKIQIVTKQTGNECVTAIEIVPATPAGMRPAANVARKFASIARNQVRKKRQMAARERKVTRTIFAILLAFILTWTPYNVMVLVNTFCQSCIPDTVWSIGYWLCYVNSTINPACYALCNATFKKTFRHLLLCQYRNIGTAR

[18] = biological target: 5-HT2B (Homo sapiens, UniProt P41595); test: Affinity profile panel: 5-HT2B; conditions: inhibition of binding
Sequence of 5-HT2B (P41595 whole entry, species assumed): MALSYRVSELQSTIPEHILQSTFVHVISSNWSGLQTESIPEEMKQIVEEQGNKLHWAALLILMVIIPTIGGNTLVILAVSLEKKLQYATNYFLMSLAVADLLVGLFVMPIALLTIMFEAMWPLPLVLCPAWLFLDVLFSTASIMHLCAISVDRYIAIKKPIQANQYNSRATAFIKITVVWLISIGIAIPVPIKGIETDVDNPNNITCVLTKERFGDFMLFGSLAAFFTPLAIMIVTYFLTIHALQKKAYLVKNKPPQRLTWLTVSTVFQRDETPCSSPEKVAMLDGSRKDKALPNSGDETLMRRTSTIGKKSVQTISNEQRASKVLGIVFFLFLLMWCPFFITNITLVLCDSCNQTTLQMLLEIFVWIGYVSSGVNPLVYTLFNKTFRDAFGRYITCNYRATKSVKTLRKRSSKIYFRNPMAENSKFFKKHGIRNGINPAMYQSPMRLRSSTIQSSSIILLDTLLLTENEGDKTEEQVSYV
Description: as §1

Sequence of PBR (P30536 whole entry, species assumed): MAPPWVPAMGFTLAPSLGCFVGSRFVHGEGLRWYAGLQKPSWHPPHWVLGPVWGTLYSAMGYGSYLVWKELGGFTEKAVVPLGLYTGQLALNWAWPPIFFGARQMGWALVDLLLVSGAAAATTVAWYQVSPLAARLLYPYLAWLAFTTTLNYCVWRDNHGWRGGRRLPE

Q: With `CN1C(=O)c2ccccc2[S@+]([O-])c2ccc(C(=O)NCCc3cccs3)cc21` [Compound 55, 10-Methyl-11-oxo-N-(2-(thiophen-2-yl)ethyl)-10,11-dihydrodibenzo[b,f][1,4]thiazepine-8-carboxamide 5-(S)-oxide] as the compound, how does the “Inhibition (%) PBR” value [1] read?
A: 31%

Q: What about the “Inhibition (%) Alpha2C” value [2] of the same compound?
A: 20.9%

Q: What about the “Inhibition (%) 5-HT5A” value [3] of the same compound?
A: 9.5%

Q: What about the “Inhibition (%) DOR” value [4] of the same compound?
A: −23.6%

Q: And the “Inhibition (%) 5-HT1B” value [5]?
A: 24.0%

Q: What about the “Inhibition (%) 5-HT1A” value [6] of the same compound?
A: 8.2%

Q: And the “Inhibition (%) Alpha1D” value [7]?
A: −22.6%

Q: What about the “Block of sumanirole-induced hypothermia response” value ([8]; 10 mg/kg) of the same compound?
A: completely blocked

Q: And the “Block of sumanirole-induced hypothermia response” value ([8]; 3.2 and 10 mg/kg)?
A: significantly and dose-dependently block the sumanirole-induced hypothermia response

Q: What about the “Inhibition (%) D3” value [9] of the same compound?
A: 59.1%

Q: What about the “Inhibition (%) 5-HT2C” value [10] of the same compound?
A: 64.5%

Q: And the “Inhibition (%) SERT” value [11]?
A: 4.8%

Q: What about the “Inhibition (%) Beta3” value [12] of the same compound?
A: 6.6%

Q: And the “Blocking of [^11C]SV-130 D2 PET probe binding in the caudate putamen” value ([13]; monkeys, 1 mg/kg or 5 mg/kg, images 20 to 100 minutes post injection)?
A: blocks the binding of the D2 receptor PET probe in the caudate putamen in a dose-dependent fashion

Q: And the “Blocking of [^11C]SV-130 labeling” value ([13]; monkeys, 5 mg/kg)?
A: almost completely blocked

Q: And the Blood-brain barrier crossing ([13]; primates, PET evidence)?
A: can cross the blood-brain barrier in primates

Q: And the Ki [14]?
A: 8.48 µM

Q: What about the “Inhibition (%) Alpha2B” value [15] of the same compound?
A: 31.2%

Q: And the “Inhibition (%) GABAA” value [16]?
A: 10.6%

Q: And the “Inhibition (%) M4” value [17]?
A: 2.4%

Q: And the “Inhibition (%) 5-HT2B” value [18]?
A: 40.1%
